Key:
[1] = aqueous solubility as a function of pH; assay type: physicochemical
[2] = solubility in substituted-β-cyclodextrin solution as a function of pH; assay type: physicochemical
[3] = aqueous buffer, neutral form / free base, room temperature, pH 6.8

| solubility [1, 3] | solubility ([1]; simulated gastric fluid, hydrochloride salt, normal gastric pH condition, pH of gastric medium ~1-2) | solubility in the substituted-β-cyclodextrins ([2]; pH 4.5 versus higher pH's up to 11) | solubility in substituted-β-cyclodextrin solution ([2]; pH lowered to between about 3 and about 4) | SMILES | solubility on adjusting pH ([1]; pH adjusted within pH 3-11, needed level e.g. 2.5 mg/mL) |
| --- | --- | --- | --- | --- | --- |
| < 1 µg/mL | – | – | – | COc1ccc(-n2nc(C(N)=O)c3c2C(=O)N(c2ccc(N4CCCCC4=O)cc2)CC3)cc1 [Apixaban, 1-(4-methoxyphenyl)-7-oxo-6-[4-(2-oxo-1-piperidinyl)phenyl]-4,5,6,7-tetrahydro-1H-pyrazolo [3,4-c]pyridine-3-carboxamide] | – |
| < 1 µg/mL | ~3000 µg/mL | same solubility | increase in solubility | CN(C)Cc1nccn1-c1ccc(NC(=O)c2cc(C(F)(F)F)nn2-c2ccc3onc(N)c3c2)c(F)c1.Cl [razaxaban] | could not be increased to the needed level |

Reference: US20090291913A1, “FACTOR Xa INHIBITOR FORMULATION AND METHOD” (Bristol-Myers Squibb Company, priority 2005, published 2009)
